Measured values from patent publication US20230255903A1, “URINARY SYMPTOM THERAPEUTIC AGENT” (TAIHO PHARMACEUTICAL CO., LTD., priority 2020, published 2023).
Values joined by “and” are separate entries in the source; they are usually repeats but may differ in a detail not shown here. Equal entries are not always repeated.

Legend:
[1] = tested on: patients having lower urinary tract disorders; experiment: Placebo-controlled double-blind comparative study: adverse events and adverse drug reactions; assay type: in vivo, human
Experimental: (§1) Patients having detrusor underactivity (DU) and at least one voiding symptom associated with DU, such as abdominal straining to void, slow urinary stream, intermittent stream, residual urine, and reduced voiding efficiency, were used as subjects. Using such subjects, a placebo-controlled double-blind comparative study was performed to examine the effectiveness and safety of Compound 1 (this test was performed using patients also having overactive bladder as subjects). Under double-blind conditions (in which neither the doctor who prescribed the drug nor the patients knew which drug was administered to each patient), 200 mg of Compound 1 or a placebo was orally administered twice a day after a meal for 12 weeks to evaluate the effectiveness and safety of Compound 1.
To study the safety of Compound 1 in patients having lower urinary tract disorders, adverse events (any unfavorable medical event that occurred in patients who participated in this study; whether or not there is a causal relationship with the active ingredient) and adverse drug reactions (adverse events that are determined to “have a reasonable possibility” of a causal relationship with the drug) were measured.

[2] = tested on: patients having detrusor underactivity (DU); experiment: Placebo-controlled double-blind comparative study: bladder voiding efficiency (BVE); assay type: in vivo, human; conditions: for BVE, Value at Week 12, Mean(S.D.) / BVE, Change from Baseline at Week 12, Mean(S.D.): 200 mg orally twice a day for 12 weeks, FAS; for BVE change, Mean Difference = Compound 1-Placebo: Week 12; for Effect on voiding efficiency (in words): 12 weeks
Experimental: as §1
To evaluate the effectiveness, BVE (bladder voiding efficiency) was evaluated. BVE (%) was calculated by the following formula:
Voided volume/(Voided volume+Residual urine volume)×100.
The voided volume refers to the amount of urine per urination. The residual urine volume refers to the amount of urine that resides in the bladder as measured by transabdominal ultrasonography after completion of urination. The difference between the baseline (before administration) and the measurement value after 12 weeks of the administration was evaluated by using a paired t-test, whereas the difference in amount of BVE variation between the Compound 1 group and the placebo group was evaluated by using Student's t-test.

[3] = 200 mg orally twice a day for 12 weeks, All Treated Patients, N=52
[4] = patients with a residual urine volume of 50 mL or more, N=29
[5] = patients with a residual urine volume of 100 mL or more, N=19
[6] = patients with a residual urine volume of less than 50 mL, N=19

Compound: CC1=C(CCCCCCCCCCCCCCCO)C(C)(C)CCC1=O [Compound 1, 3-(15-hydroxypentadecyl)-2,4,4-trimethyl-2-cyclohexen-1-one]
- Adverse Drug Reactions, N (patients) [1, 3]: 0
- Adverse Drug Reactions, incidence [1, 3]: 0.0%
- Adverse Events, N (patients) [1, 3]: 24
- Adverse Events, incidence [1, 3]: 46.2%
- Safety and tolerability (in words) ([1]; oral administration of 200 mg twice a day for 12 weeks): well tolerated
- BVE, Value at Week 12, Mean(S.D.) ([2]; entire group of patients having lower urinary tract disorders, N=48): 66.79 (27.04) %
- BVE, Change from Baseline at Week 12, Mean(S.D.) ([2]; entire group of patients, N=48): 10.91% and 10.91 (26.48) %
- BVE change, Mean Difference = Compound 1-Placebo ([2]; entire group of patients, Student's t-test p=0.178): 8.49%
- Effect on voiding efficiency (in words) ([2]; patients with a residual urine volume of 50 mL or more or of 100 mL or more): significantly increased the voiding efficiency
- BVE, Change from Baseline at Week 12, Mean(S.D.) [2, 4]: 18.41% and 18.41 (24.39) %
- BVE, Value at Week 12, Mean(S.D.) [2, 4]: 61.66 (30.45) %
- BVE change, Mean Difference = Compound 1-Placebo ([2]; patients with a residual urine volume of 50 mL or more, Student's t-test p=0.031): 15.53%
- BVE, Change from Baseline at Week 12, Mean(S.D.) [2, 5]: 23.57% and 23.57 (25.54) %
- BVE, Value at Week 12, Mean(S.D.) [2, 5]: 54.71 (33.78) %
- BVE change, Mean Difference = Compound 1-Placebo ([2]; patients with a residual urine volume of 100 mL or more, Student's t-test p=0.025): 21.47%
- BVE, Change from Baseline at Week 12, Mean(S.D.) [2, 6]: −0.55 (25.99) %
- BVE, Value at Week 12, Mean(S.D.) [2, 6]: 74.62 (18.94) %
- Effect on voiding efficiency (in words) ([2]; patients with a residual urine volume of less than 50 mL): did not significantly increase the voiding efficiency
- BVE change, Mean Difference = Compound 1-Placebo ([2]; patients with a residual urine volume of less than 50 mL, Student's t-test p=0.853): −2.09%
